Measurements reported in patent EP0061157A1, “2-Benzoylamino substituted benzylamine derivative and a process for preparation thereof” (Hokuriku Pharmaceutical Co.,Ltd, priority 1981, dated 1982).
Structures can show the parent of a compound that is named as a salt. Marks after values point to notes of the source that are not given here.

Experiments:
tracheal secretory cells = experiment: Effect on the secretory activity of the tracheal secretory cells (isolated tracheal strips, AB/PAS staining, A^IWR); format: cell-based, dogs; conditions: for Acinar Inner Diameter of Submucosal Gland to Wall Ratio (A^IWR): dog tracheal strips incubated 30 minutes, control 5.0 x 10^-2; for activation at 10 µM / activation at 1 µM / activation at 0.1 µM: Canis lupus familiaris, 0.5 h, relative to control, read-out: Increasing Rate in A^IWR (%)
Procedure: Experiments were performed following the method of Yanaura et al. (Nippon Yakurigaku Zasshi, 77, 559 - 568 (1981)). Male mongrel dogs weighing 10 to 12 kg were anesthetized with sodium pentobarbital (30 mg/kg, i.v.). The trachea was quickly excised about 10 cm long and rapidly […] to a Hanks' solution (95% 02 - 5% CO2, 37 + 1° ). Connective tissues around were removed and the trachea was cut into strips about 2 cm long. The tracheal strips were preincubated for 30 minutes in Hanks' solution, and then drugs were added to the solution and the mixtures were further incubated for 30 minutes. The tracheal strips were then fixed with a 10% formaldehyde isotonic solution followed by dehydrating in a series of graded ethanol concentrations and paraffinembedding in a conventional manner. Sections 4 µm thick were cut with a Jung type microtome and stained with alcian blue (pH 2.5) - periodic acid Schiff (AB (pH 2.5)/PAS). The specimens were studied by the optical microscopic observation with the effects of drugs on the secretory activities of the tracheal secretory cells and on the dissolution of acid glycoprotein in submucosal glandular cells of the tracheal. A thickness between basement membrance and cartilage (thickness of […]; wall is referred to as "W"), and acinar inner diameter of submucosal gland (A^I) were measured. Then, acinar inner diameter of submucosal gland to wall ratio (A^IWR) was calculated. Increase of A^IWR reflects enhancement of the secretory activity in submucosal gland. If test drug has a significant increase in A^IWR, it has a respiratory tract fluid (RTF) - increasing effect.

[1] = tested on: acid glycoprotein in submucosal glandular cells of the trachea; experiment: Effect on the dissolution of acid glycoprotein in submucosal glandular cells of the trachea (isolated tracheal strips, AB/PAS staining); format: cell-based, dogs; conditions: for Ratio of Glandular Cells Containing Acid Glycoprotein to Total Glandular Cells (%): control 72.4; for EC50: Canis lupus familiaris, dose required for decreasing acid glycoprotein by 50%, calculated from Table III data, read-out: ED50 (the source's name); for Potency Ratio: from ED50, dose of reference drug 1 made 1
Procedure: Experiments were performed following the method of Yanaura et al. (Nippon Yakurigaku Zasshi, 77, 559 - 568 (1981)). Male mongrel dogs weighing 10 to 12 kg were anesthetized with sodium pentobarbital (30 mg/kg, i.v.). The trachea was quickly excised about 10 cm long and rapidly […] to a Hanks' solution (95% 02 - 5% CO2, 37 + 1° ). Connective tissues around were removed and the trachea was cut into strips about 2 cm long. The tracheal strips were preincubated for 30 minutes in Hanks' solution, and then drugs were added to the solution and the mixtures were further incubated for 30 minutes. The tracheal strips were then fixed with a 10% formaldehyde isotonic solution followed by dehydrating in a series of graded ethanol concentrations and paraffinembedding in a conventional manner. Sections 4 µm thick were cut with a Jung type microtome and stained with alcian blue (pH 2.5) - periodic acid Schiff (AB (pH 2.5)/PAS). The specimens were studied by the optical microscopic observation with the effects of drugs on the secretory activities of the tracheal secretory cells and on the dissolution of acid glycoprotein in submucosal glandular cells of the tracheal. As a tracheal mucus dissolution activity, an effect on the dissolution of acid glycoprotein in submucosal glandular cells was observed. In double staining with AB (pH 2.5)/PAS, submucosal glandular cells containing much acid glycoprotein were strongly stained blue because of the reaction with AB. When acid glycoprotein in glandular cells is dissolved and its acid groups were lost, it is stained with PAS instead of AB. Consequently, submucosal glandular cells turned to red from blue in color. The ratio of blue glandular cells to total glandular cells was observed, and the effect on the dissolution of acid glycoprotein was estimated by decrease in the ratio. Based on the above data, a dose of each of the compounds tested required for decreasing acid glycoprotein by 50% (ED50) was calculated. Further, a potency ratio was determined when the dose of reference drug 1 was made 1.

Acute toxicity test = conditions: mouse, in vivo, mice, Litchfield-Wilcoxon, dead animals within 7 days
Procedure: Male mice of ddy-strain weighing 20 to 25 g were used. Drugs were administered orally and intraperitoneally to 10 mice in each group. LD50 was calculated by the Litchfield-Wilcoxon method from dead animals within 7 days.

[2] = compared with reference drugs 1 and 2

| Compound | Acinar Inner Diameter of Submucosal Gland to Wall Ratio (A^IWR) (tracheal secretory cells; 1 x 10^-5M) | Acinar Inner Diameter of Submucosal Gland to Wall Ratio (A^IWR) (tracheal secretory cells; 1 x 10^-6M) | Acinar Inner Diameter of Submucosal Gland to Wall Ratio (A^IWR) (tracheal secretory cells; 1 x 10^-7M) | activation at 10 µM (tracheal secretory cells; 1 x 10^-5M) | activation at 1 µM (tracheal secretory cells; 1 x 10^-6M) | activation at 0.1 µM (tracheal secretory cells; 1 x 10^-7M) | Ratio of Glandular Cells Containing Acid Glycoprotein to Total Glandular Cells (%) ([1]; 1 x 10^-5 M) | Ratio of Glandular Cells Containing Acid Glycoprotein to Total Glandular Cells (%) ([1]; 1 x 10^-6 M) | Ratio of Glandular Cells Containing Acid Glycoprotein to Total Glandular Cells (%) ([1]; 1 x 10^-7 M) | EC50 [1] | LD50 at 168 h (Acute toxicity test; ip, I.P.) | LD50 at 168 h (Acute toxicity test; po, P.O.) | enhancement in A^IWR, times as strong as that of reference drugs 1 and 2 (tracheal secretory cells; [2]) | mucolytic activity (dissolution of acid glycoprotein), times stronger than that of reference drugs 1 and 2 [1, 2] | Potency Ratio [1] |
| --- | --- | --- | --- | --- | --- | --- | --- | --- | --- | --- | --- | --- | --- | --- | --- |
| COc1cc(C(=O)Nc2c(Br)cc(Br)cc2CN(C)C2CCCCC2)ccc1OC(C)=O [Reference Drug 1, 2-(4-Acetoxy-3-methoxybenzoylamino)-3.5-dibromo-N-cyclohexyl-N-methylbenzylamine hydrochloride] | 6.5 x 10^-2** | 6.2 x 10^-2* | 5.3 x 10^-2 | 30% | 24% | 6% | 23.8** % | 46.8** % | 71.0% | 2500 nM | > 4000 mg/kg | > 12000 mg/kg |  |  |  |
| COc1cc(C(=O)Nc2c(Br)cc(Br)cc2CN(C)C2CCCCC2)ccc1O.Cl [Compound of This Invention, 2-(4-Hydroxy-3-methoxybenzoylamino)-3,5-dibromo-N-cyclohexyl-N-methylbenzylamine hydrochloride] | 7.3 x 10^-2** | 7.1 x 10^-2** | 6.1 x 10^-2* | 46% | 42% | 22% | 10.6** % | 21.6** % | 42.0** % | 230 nM | > 4000 mg/kg | > 12000 mg/kg | about 10 times | 10 times | 10.87 |
| CN(Cc1cc(Br)cc(Br)c1N)C1CCCCC1.Cl [Reference Drug 2, 2-Amino-3,5-dibromo-N-cyclohexyl-N-methylbenzylamine hydrochloride] | 6.2 x 10^-2* | 5.6 x 10^-2 | 5.2 x 10^-2 | 24% | 12% | 4% | 17.5** % | 30.0** % | 66.2% | 1300 nM | 2320 mg/kg | 9000 mg/kg |  |  | 1.92 |
